{
  "source": "patent US11344607B2",
  "about": "“Treatment of disease with relaxin” (BV Biomed Ltd, priority 2015, dated 2022)",
  "key": {"IL-17": {"test_system": "IL-17", "assay": "RT-PCR of spinal cord, IL-17 expression", "assay_type": "in vivo, mice", "conditions": "for change of spinal cord IL-17 expression vs placebo: EAE mice, in words", "procedure": "(§1) At 7-8 weeks of age, mice were immunized with […] emulsion (Hooke Laboratories #EK-2110 provided pre-formulated). Mice received pertussis toxin (Hooke Laboratory, Cat #EK-2110 provided lyophilized) reconstituted in phosphate buffered saline (PBS) at the time of immunization (day 0; 75 ng) and on day 2 (200 ng). Animals were scored daily for disease severity: 0=normal, 1=tail paralysis, 2=tail paralysis and strong hind limb weakness, 3=complete hind limb paralysis, 4=hind limb and forelimb paralysis, 5=found dead.\n(§2) At the onset of EAE (the first day with a score of 1 or greater), subcutaneous alzet pumps (DURECT Corporation, Cupertino, Calif.) were inserted and the animals were randomly assigned to receive either porcine relaxin (SKY BioHealth, Inc., Eden Prairie, Minn., […]) or placebo treatment (1 μ/Hr PBS), either recombinant porcine relaxin (pRLN, n=8) or placebo (PBS, n=8) at a rate of 0.110/hr. Relaxin (SKY BioHealth, Inc., Eden Prairie, Minn/) was administered at a concentration of 0.25 mg/ml for the remainder of the study. This delivered a standard dose of 0.66 μg/day of pRLN, which is equivalent to the identified effective dose of 30 μg/KG body weight/day (Hasse et al, 2014). Statistical analysis was done using the t-test and P values <0.05 were considered to be statistically significant.\n(§3) Spinal cords and brains were collected for RT-PCR and histopathology. Total RNA was isolated from spinal cord and brain tissue using the RNeasy mini-kit protocol (Qiagen; Valencia, Calif.) and converted to cDNA using oligo(dT), random hexamers, and Superscript RT II (Invitrogen; Grand Island, N.Y.). […]\n(§4) β-actin. Alternatively RT-PCR for the chemokine receptors (CCR); CCR2, CCR5, CCR7, the interleukins (IL-6 and IL-17) were analyzed using quantitect primers (table 2) and SYBR green based RT-PCR kits (Qiagen, Valencia, Calif.). For histology, spinal cords sections were stained using luxol fast blue-periodic acid shiff for semi-quantitative analysis of infiltration and demyelination."}, "IL-6": {"test_system": "IL-6", "assay": "RT-PCR of spinal cord, IL-6 expression", "assay_type": "in vivo, mice", "conditions": "for change of spinal cord IL-6 expression vs placebo: EAE mice, in words", "procedure": "as §1, §2, §3, §4"}, "IL-10": {"test_system": "IL-10", "assay": "RT-PCR of spinal cord, IL-10 expression", "assay_type": "in vivo", "conditions": "EAE mice, in words (FIG. 3)", "procedure": "as §1, §2\n(§5) Spinal cords and brains were collected for RT-PCR and histopathology. […]"}, "CCR2": {"test_system": "CCR2", "assay": "RT-PCR of spinal cord, CCR2 expression", "assay_type": "in vivo, mice", "procedure": "as §1\n(§6) At the onset of EAE (the first day with a score of 1 or greater), subcutaneous alzet pumps (DURECT Corporation, Cupertino, Calif.) were inserted and the animals were randomly assigned to receive either porcine relaxin (SKY BioHealth, Inc., Eden Prairie, Minn., 66.0 μg/day) or placebo treatment (1 μ/Hr PBS), either recombinant porcine relaxin (pRLN, n=8) or placebo (PBS, n=8) at a rate of 0.110/hr. […]\nas §4"}, "neurofilaments": {"test_system": "neurofilaments", "assay": "Neurofilament immunohistochemistry of spinal cord", "assay_type": "in vivo", "conditions": "EAE mice, vs untreated; listed as RLN", "procedure": "(§7) For alternative histology, spinal cords were formalin fixed and paraffin embedded (FFPE) as described by Canene-Adams [Canene-Adams, 2013]. Briefly, Spinal cords were rinsed in PBS to remove blood and fixed in 10% formalin for 48 hours at room temperature. Tissues were then transferred to 70% ethanol (ETOH) for 1 hour, 95% ETOH (95% ETOH/5% methanol) for 1 hour, then incubated in four absolute ETOH baths first for 1 hour, then 2 for 1½ hours, followed by a fourth for 2 hours. Tissues were then cleared with two xylene baths for 1 hour each. Tissues were then incubated in two paraffin baths at 58° C. for 1 hour each. Tissues were then removed and placed in cassettes.\n(§8) The FFPE tissues were sectioned into […] slices on a microtome. Slices were transferred to glass slides and warmed to 65° C. for 20 minutes to bond the tissue to the glass.\n(§9) Sections were stained with Kiernan's eriochrome cyanin for myelin [Kiernan J A, 1999], cluster of differentiation 68 (CD68) for macrophages [Holness and Simmons, 1993], neurofilaments [Alberts, B. 2002] and glial fibrillary acidic protein (GFAP) [Jacque C M, et al, 1978].\n(§10) Standard immunohistochemistry [Ramos-vara and Miller, 2014] was used to identify the presence of CD68, neurofilaments and GFAP in the FFPE tissues. Essentially the appropriate antibody directed against the antigen of choice was incubated with the tissue and allowed to bind. […]"}, "EAE mouse model": {"test_system": "EAE mouse model", "assay": "EAE disease severity, daily clinical score", "assay_type": "in vivo, mice", "procedure": "Female C57BL/6 mice were obtained and housed at Biomedical Research Models (Worcester, Mass.)\nas §1, §2"}, "CCR5": {"test_system": "CCR5", "assay": "RT-PCR of spinal cord, CCR5 expression", "assay_type": "in vivo, mice", "procedure": "as §1, §6, §4"}, "[1]": {"test_system": "inflammation and Wallerian degeneration of the spinal cord", "assay": "H&E staining of spinal cord", "assay_type": "in vivo", "conditions": "EAE mice, vs untreated", "procedure": "as §7, §8\nStaining with Hematoxylin and eosin (H&E) stain was also carried out according to standard protocols."}, "myelin": {"test_system": "myelin", "assay": "Kiernan's eriochrome cyanin stain of spinal cord for myelin", "assay_type": "in vivo", "conditions": "EAE mice, vs untreated (loss of myelin)", "procedure": "as §7, §8, §9\nKiernan's stain for myelin was done as described. First tissues were placed in a solution containing eriochrome cyanine R, ferric chloride and sulphuric acid in water for 20 minutes. Rinsed briefly under tap water and differentiated with aqueous ferric chloride (5.6%). […]"}, "[2]": {"conditions": "limited clinical trials (Smith 2006); cited from earlier work"}, "MIR2": {"test_system": "MIR2", "assay": "Spinal cord expression of MIR2", "assay_type": "in vivo", "conditions": "EAE mice, in words (FIG. 3)", "procedure": "as §1, §2, §5"}, "GFAP": {"test_system": "GFAP", "assay": "GFAP immunohistochemistry of spinal cord (gliosis)", "assay_type": "in vivo", "conditions": "EAE mice, untreated stained positive (extensive gliosis)", "procedure": "as §7, §8, §9, §10"}, "CCR7": {"test_system": "CCR7", "assay": "RT-PCR of spinal cord, CCR7 expression", "assay_type": "in vivo, mice", "procedure": "as §1, §6, §4"}, "spinal cord lesions": {"test_system": "spinal cord lesions", "assay": "Spinal cord histology, infiltration and demyelination (lesion load)", "assay_type": "in vivo", "conditions": "EAE mice, compared to control animals, data not shown", "procedure": "as §4"}, "CD68": {"test_system": "CD68", "assay": "CD68 immunohistochemistry of spinal cord (macrophages)", "assay_type": "in vivo", "conditions": "EAE mice, vs untreated; listed as RLN", "procedure": "as §7, §8, §9, §10"}},
  "note": "Where “and” joins values, the source holds several entries; their conditions need not be identical. Equal entries are not always repeated. Entries after “also recorded” stand apart in the source; their conditions may differ. No end group written: not given here.",
  "data": [
    {"substance": "relaxin: porcine relaxin (SKY BioHealth, Inc.), recombinant porcine relaxin (pRLN), infused by subcutaneous alzet pump (Relaxin B chain QSTNDFIKACGRELVRLWVEICGSVSWGRTAL; Relaxin A chain RMTLSEKCCQVGCIRKDIARLC; ends and bridges not checked; cysteine pairing not given here; UniProt P01348 25-56; P01348 161-182, looked up)", "values": [
      {"measurement": "change of spinal cord IL-17 expression vs placebo", "setting": "IL-17", "value": "significantly decreased"},
      {"measurement": "change of spinal cord IL-17 expression vs placebo", "setting": "IL-17; listed as RLX", "value": "decreased"},
      {"measurement": "spinal cord expression of IL-17", "setting": "IL-17; normalized to β-actin, EAE mice n=8, further studies (FIG. 4), p<0.05 vs placebo 0.00026", "value": 0.000078, "unit": "relative units"},
      {"measurement": "change of spinal cord IL-6 expression vs placebo", "setting": "IL-6", "value": "significantly decreased"},
      {"measurement": "change of spinal cord IL-6 expression vs placebo", "setting": "IL-6; listed as RLX", "value": "decreased"},
      {"measurement": "spinal cord expression of IL-6", "setting": "IL-6; normalized to β-actin, EAE mice n=8, further studies (FIG. 4), p<0.05 vs placebo 0.0009", "value": 0.0004, "unit": "relative units"},
      {"measurement": "change of spinal cord IL-10 expression", "setting": "IL-10", "value": "decreased"},
      {"measurement": "change of spinal cord CCR2 expression vs PBS/placebo", "setting": "CCR2; EAE mice, in words", "value": "decreased; also recorded: significant reductions"},
      {"measurement": "spinal cord expression of CCR2", "setting": "CCR2; normalized to β-actin, EAE mice n=8, further studies (FIG. 2b), p<0.05 vs placebo", "value": 0.044, "unit": "relative units"},
      {"measurement": "loss of neurofilament in the spinal cord", "setting": "neurofilaments", "value": "relatively greater loss of neurofilaments compared to mice receiving RLN therapy; also recorded: greater loss of neurofilament in the spinal cords of untreated mice"},
      {"measurement": "time to marked improvement in clinical score", "setting": "EAE mouse model; EAE mice, after commencing continuous infusion (FIG. 1a)", "value": "≤ 3", "unit": "days"},
      {"measurement": "clinical score at the end of treatment", "setting": "EAE mouse model; EAE mice, n=8, scale 0-5, subcutaneous alzet pump from EAE onset, score 2.0 at start, placebo 1.5, listed as RLN", "value": "0.5 and > 0.5"},
      {"measurement": "change in clinical score compared to PBS control", "setting": "EAE mouse model; EAE model animals, FIG. 1a", "value": "improvement in clinical score"},
      {"measurement": "change of spinal cord CCR5 expression vs PBS/placebo", "setting": "CCR5; EAE mice, in words", "value": "decreased; also recorded: significant reductions"},
      {"measurement": "spinal cord expression of CCR5", "setting": "CCR5; normalized to β-actin, EAE mice n=8, further studies (FIG. 2b), not significant vs placebo 0.0046", "value": 0.0035, "unit": "relative units"},
      {"measurement": "inflammation and Wallerian degeneration of the spinal cord", "setting": "[1]", "value": "decrease in inflammation and Wallerian degeneration"},
      {"measurement": "myelin in spinal cord sections", "setting": "myelin", "value": "decreases myelination and increases remyelination"},
      {"measurement": "myelin in spinal cord sections", "setting": "myelin; listed as RLN", "value": "normal appearing myelin"},
      {"measurement": "severe side effects", "setting": "[2]", "value": "no severe side effects"},
      {"measurement": "change of spinal cord MIR2 expression", "setting": "MIR2", "value": "increased"},
      {"measurement": "change of spinal cord MIR2 expression", "setting": "MIR2; listed as RLX", "value": "increased the expression of the MIR2"},
      {"measurement": "GFAP staining of spinal cord / gliosis", "setting": "GFAP", "value": "complete lack of gliosis"},
      {"measurement": "GFAP staining of spinal cord / gliosis", "setting": "GFAP; listed as RLN", "value": "negative for GFAP; also recorded: did not stain positively for GFAP"},
      {"measurement": "change of spinal cord CCR7 expression vs PBS/placebo", "setting": "CCR7; EAE mice, in words", "value": "decreased; also recorded: significant reductions"},
      {"measurement": "spinal cord expression of CCR7", "setting": "CCR7; normalized to β-actin, EAE mice n=8, further studies (FIG. 2b), p<0.05 vs placebo 0.014", "value": 0.003, "unit": "relative units"},
      {"measurement": "lesion load and size in the spinal cord", "setting": "spinal cord lesions", "value": "reduced lesion load and size"},
      {"measurement": "macrophage infiltration of the spinal cord (CD68)", "setting": "CD68", "value": "greater infiltration of macrophages in the untreated samples than in those treated with RLN; also recorded: decreased macrophage infiltration"}
    ]}
  ]
}
